Marks after values point to notes of the source that are not given here.

Assay [1] has as its system mouse psoriasis model induced by 5% IMQ. Kind of assay: PASI score of mouse psoriasis model induced by imiquimod under drug intervention. It counts as in vivo. The settings on record: 0.1% dexamethasone s.c. 100 μL twice a day + imiquimod, n = 8, mean ± SD. An excerpt:
(§1) 16 C57BL/6 mice, with half male and half female were purchased from the Experimental Animal Center of Nanjing Medical University, wherein weights of the mice ranged from 18 g to 20 g. Back hair of the mice was shaved off, and then the mice were randomly divided into 2 groups (8 mice in each group) according to male and female genders. Before experiment, the mice were placed in a quiet environment kept away from strong light for 3 days to adapt to the environment, a ratio of an illuminating time to a dark time was 1:1, a room temperature was controlled at 25° C., a humidity was 55%, and the mice could eat and drink freely. 62.5 mg of 5% (0.1 g:2 g) imiquimod ointment (Zhuhai United Laboratories Co., Ltd.) was continuously applied to back skins of the mice for 6 days to induce a psoriasis-like lesion, while the same dose of vaseline ointment was given to the control group.
(§2) The clinical symptom of the mouse psoriasis model was evaluated by a PASI scoring standard from three indicators of erythema, scale and infiltration thickening. The scores ranged from 0 point to 4 points, and a total score was obtained by adding scores of the three indicators. The PASI scoring standard was as follows: 0 point referred to no symptom; 1 point referred to a mild degree; 2 points referred to a moderate degree; 3 points referred to a severe degree; and 4 points referred to an extremely severe degree. The PASI evaluation was conducted daily before the IMQ ointment was applied.
C57BL/6 mice, with half male and half female were purchased from the Experimental Animal Center of Nanjing Medical University, wherein weights of the mice ranged from 18 g to 20 g. The C57BL/6 mice were randomly divided into 4 groups (8 mice in each group). Mouse psoriasis models were established as described in Embodiment 2 (1). […]
Back skins of the mice were photographed and recorded on the 1st, 3rd and 5th days after modeling.

Assay [2] concerns back skins of C57BL/6 mice. Kind of assay: PASI score of back skin of mice after continuous application of 5% imiquimod ointment (model induction). The settings on record: 62.5 mg 5% imiquimod ointment on back skin, mean ± SD. It is filed as in vivo, mouse.
From the text: as §1, with “group. The back skins of the mice were photographed and recorded on the 1st, 3rd and 5th days of modeling and skin appearances on the 5th day of modeling were shown in FIG. 2A.” for “group.”
as §2, with “applied. It should be noted that measurement data was represented by mean±standard deviation (mean±SD), and was detected by One-Way ANOVA, wherein in the analysis results, ** represented that P<0.01, which was relative to the vaseline group.” for “applied.”

Take `C[C@@H]1C[C@H]2[C@@H]3CCC4=CC(=O)C=C[C@]4(C)[C@@]3(F)[C@@H](O)C[C@]2(C)[C@@]1(O)C(=O)CO` [Dexamethasone, dexamethasone, reference compound]: the PASI score in assay [1] (day 1) is reported as 0.0 ± 0.0; in assay [1] (day 2), 0.3 ± 0.5; in assay [1] (day 3), 0.8 ± 0.5; in assay [1] (day 4) it was 1.5 ± 1.0; in assay [1] (day 5) it was 2.3 ± 0.9.

For the compound `CC(C)Cn1cnc2c(N)nc3ccccc3c21` [Imiquimod, imiquimod], the PASI score is listed as 0.0 ± 0.0 in assay [2] (day 1); 1.5 ± 0.8 in assay [2] (day 2); 4.5 ± 2.2** in assay [2] (day 3); 6.8 ± 1.7** in assay [2] (day 4); 9.8 ± 1.3** in assay [2] (day 5).

(Values after patent US11304926B2, “Application of transient receptor potential cation channel TRPV3 in developing drug for preventing or treating psoriasis” (CHINA PHARMACEUTICAL UNIVERSITY, priority 2019, dated 2022).)
